Patent US12467038B2, “Methods of culturing human pluripotent cells” (Hadasit Medical Research Services and Development Ltd., priority 2019, dated 2025)

Tests used:
Assay type in all cases: cell-based, human
LN-hPSCs [1] = assay: Signaling pathways analysis, Real-Time PCR of marker expression
Description: (§1) Signaling pathways analysis—hPSCs were cultured on LN111 for 2 days in complete medium, and then for additional 3-5 days in a medium+/−FGF2 in the presence of the following small molecules: PD032590 1 μM (Peprotech), LY294002 10 μM, SB431542 10 μM, CHIR99021 3 μM (all from Cayman Chemical, Michigan, USA), XAV939 2.5 μM (Peprotech), BMP4 50 ng/ml (Biogems-Peprotech).
(§2) Real Time PCR analysis—A relative gene expression quantitation assay was performed by amplification of 50 ng cDNA by Real Time PCR, using ABI Prism 7900HT Sequence Detection System (Applied Biosystems (ABI), Foster City, Calif.), specific TaqMan® Gene Expression Assays and TaqMan Fast Universal PCR master Mix. Human β-glucuronidase (gusB) or human β-actin (actB) were used as endogenous gene references. Data was analyzed using the RQ Manager Software v1.2 (ABI). For global expression analysis of pluripotency and differentiation associated genes, 200 ng cDNA were subjected to Real Time PCR amplification using Applied Biosystems® TaqMan® Human Stem Cell Pluripotency Array (Cat. No. 4385344), and Taqman Gene Expression Master Mix. Array data was analyzed using the DataAssist Software v2.0 (ABI).
(§3) Signaling pathways analysis-hPSCs were cultured on LN111 for 2 days in complete medium, and then for additional 3-5 days in a medium+/−FGF2 in the presence of the following small molecules: PD032590 1 μM (Peprotech), LY294002 10 μM, SB431542 10 μM, CHIR99021 3 μM (all from Cayman Chemical, Michigan, USA), XAV939 2.5 μM (Peprotech), BMP4 50 ng/ml (Biogems-Peprotech).
as §2, with “of 25-50” for “of 50”, “by Real-Time” for “by Real Time”, “and TaqMan®” for “and TaqMan”, “PCR Master Mix (All from Invitrogen).” for “PCR master Mix.”, “to Real-time” for “to Real Time”

LN-hPSCs [2] = assay: Signaling pathways analysis, phase-contrast colony morphology
Description: as §1, §3

LN-hPSCs [3] = assay: FACS analysis of pluripotency cell-surface markers; conditions: basic medium supplemented with FGF2, XAV939 2.5 μM
Description: Signaling pathways analysis—hPSCs were cultured on LN111 for 2 days in complete medium, and then for additional 3-5 days in a medium+/−FGF2 in the presence of the following small molecules: PD032590 1 μM (Peprotech), LY294002 10 μM, SB431542 10 μM, CHIR99021 3 μM (all from Cayman Chemical, Michigan, USA), XAV939 2.5 μM (Peprotech), BMP4 50 ng/ml (Biogems-Peprotech). FACS analysis—FACS analyses were performed using the following primary antibodies: mouse IgM anti-TRA-1-60 (1:100; mab4360, R&D), and mouse IgM anti-TRA-1-81 (1:100; mab4381, R&D), and Rat IgM anti-SSEA-3. Staining with respective isotype control antibodies (all from eBiosciences) served as controls. Detection of primary antibodies was performed using the following secondary antibodies: FITC-conjugated Polyclonal Goat Anti-Mouse Immunoglobulins (1:100; Dako, Glostrup, Denmark), APC-conjugated Goat anti-Mouse IgM/G (1:200; Cat. No. 1020-11, SouthernBiotech, Birmingham, Ala., USA), and APC-conjugated anti-Rat (1:200; eBioscience). FACS analysis was performed on a FACScalibur system (Becton-Dickinson, San Jose, Calif.) using the Cellquest software. A detailed FACS procedure is described elsewhere. FACS analysis—FACS analyses for pluripotency marker expression were performed using mouse anti-TRA-1-60 (1:100; mab4360, R&D), and mouse anti-TRA-1-81 (1:100; mab4381, R&D). […]

hPSCs = assay: Undifferentiated propagation and PGC differentiation of hPSCs on laminin; conditions: HES-1 hPSCs
Description: LN-hPSCs were cultured on mouse LN111, 3-D Culture Matrix Laminin I (CULTREX, TREVIGEN, #3446-005-01, Gaithersburg, Md., USA). 0.175 ml diluted LN111 (1:14 to a coating concentration of 0.43 mg/ml) was used to coat a well of a 6-well culture dish, leaving a margin of 2-3 mm at the well edge (a final concentration of ˜8 microgram/cm^2). The coated dishes were incubated from 4 hours to 4 days, at 37° C., and washed with PBS before use. LN-hPSCs were cultured in a medium composed of DMEM/F12, B27 supplement (1:50), N2 supplement (1:100), 2 mM L-glutamine, 50 units/ml penicillin, 50 μg/ml streptomycin (all from Invitrogen), and supplemented daily with 20 ng/ml FGF2 (Peprotech). Cells were passaged every 5-6 days using 1.5 mg/ml collagenase type IV (Invitrogen). 5 μM ROCK inhibitor (Y-27632, Peprotech) was added for the first day after passaging.
hPSCs were cultured on human recombinant LN521 (BIOLAMINA, Sundbyberg, Sweden). Coating of culture dishes with hrLN521 was performed according to the manufacturer's instructions (Coating concentration ˜0.45 microgram/cm^2). Cells were cultured in the same medium used for culturing LN-hPSCs, and passaged with collagenase type IV.
PGC differentiation of hPSCs in suspension—LN-hPSCs and hPSCs cultured on hrLN-521 were dissociated into a single-cell suspension using TrypLE Select Enzyme (Invitrogen). Primed hPSCs were first dissociated from the MEF feeders by treatment with collagenase type IV, followed by dissociation into single cells by TrypLE Select Enzyme. 2000-3000 cells were seeded into a microwell of AggreWell™800 24-well plate (STEMCELL Technologies), and cultured as EBs in suspension, in PGCLC differentiation medium as described elsewhere (Irie et al., 2015).

LN-hPSCs [4] = assay: Immunofluorescence staining after WNT activation; conditions: upon WNT activation with CHIR
Description: as §1
Immunofluorescence staining: 4-6 day hESC colonies were fixed with 4% paraformaldehyde for 20 min at RT, permeabilized and blocked with 0.2% Triton X100 (Sigma-Aldrich), 5% normal goat/donkey serum (Biological industries, Beit Haemek, Israel) in PBS for 45 min, and incubated 1 hour at RT with the following primary antibodies: mouse IgG2b anti-human Oct4 (1:50; Cat. No. SC5279, Santa Cruz Biotechnology Inc., USA), goat polyclonal IgG anti-human FGF5 (1:250; Cat. No. AF-237-NA, R&D Systems, Minneapolis, Minn., USA), Rabbit polyclonal IgG anti-GFP (1:250; Cat. No. A11122, Invitrogen), goat polyclonal IgG anti-Brachyury (1:150; Cat. No. AF-2085, R&D Systems), and goat polyclonal IgG anti-human OTX2 (1:50; Cat. No. AF-1979, R&D Systems). […]

[5] = medium depleted for FGF2, in the presence of the inhibitor, five days

Compound: BMP4: BMP4 50 ng/ml (Biogems-Peprotech), conserved role in germ cell specification
- expression of early PGC TFs PRDM1 (BLIMP1) and TFAP2C (LN-hPSCs [1]; BMP4 treatment): induced the expression
- expression of formative pluripotency TFs OTX2 and FOXD3 (LN-hPSCs [1]; BMP4 treatment): down-regulation

Compound: Oc1nc(-c2ccc(C(F)(F)F)cc2)nc2c1CSCC2 [XAV939]
- LN-hPSC colonies morphology (LN-hPSCs [2]; basic medium supplemented with FGF2, XAV939 2.5 μM): did not affect
- percentages of cells expressing TRA-1-60 (LN-hPSCs [3]): did not affect

Compound: hrLN521: human recombinant LN521 (BIOLAMINA), coating of culture dishes
- competence to initiate germ cell specification (hPSCs): competent to initiate germ cell specification
- undifferentiated propagation of hPSCs expressing markers of pluripotency and early post-implantation epiblast (hPSCs): supports the undifferentiated propagation

Compound: NC(=O)c1ccc(-c2nc(-c3ccc4c(c3)OCO4)c(-c3ccccn3)[nH]2)cc1 [SB431542]
- Oct4 and Nanog expression levels (LN-hPSCs [1]; FGF2 depleted from the medium): strongly reduced
- Nanog expression (LN-hPSCs [1]; medium containing FGF2, 5 d): drastically reduced
- Oct4 levels (LN-hPSCs [1]; medium containing FGF2, 5 d): moderately down-regulated
- colony morphology (LN-hPSCs [2]; FGF2 depleted from the medium): the colonies including the margins differentiated
- colony morphology (LN-hPSCs [2]; medium containing FGF2, 5 d): appeared differentiated

Compound: Cc1c[nH]c(-c2cnc(NCCNc3ccc(C#N)cn3)nc2-c2ccc(Cl)cc2Cl)n1 [CHIR, CHIR99021]
- expression of PS and mesendodermal markers T, SOX17, and GSC (LN-hPSCs [1]; 3 days in the presence of CHIR): up-regulation
- expression of core pluripotency TFs Oct4, Nanog and SOX2 as well as OTX2 (LN-hPSCs [1]; 3 days in the presence of CHIR): down-regulation
- expression of early ecdodermal marker PAX6 (LN-hPSCs [1]; 3 days in the presence of CHIR): down-regulated
- LN-hPSC colony morphology (LN-hPSCs [2]; 3 days in the presence of CHIR): appeared differentiated
- T-positive cells (immunostaining) (LN-hPSCs [4]): expressed in the majority of the cells

Compound: O=C(NOC[C@H](O)CO)c1ccc(F)c(F)c1Nc1ccc(I)cc1F [PD032590]
- Oct4 and Nanog expression levels (LN-hPSCs [1]; [5]): significant down-regulation
- differentiation as evidenced by changes in cell morphology (LN-hPSCs [2]; [5]): Differentiation was observed
